{
  "source": "patent US11986512B2",
  "about": "“Compositions and methods for cancer therapy” (Thetis Pharmaceuticals LLC, priority 2021, dated 2024)",
  "type_in_all_cases": "in vivo, C57BL/6J male mice",
  "key": {"[1]": {"system": "Panc2-H7 cells", "experiment": "Panc2-H7 model, daily (QD) versus weekly (Q7D) dosing", "conditions": "SC", "experimental": "(§1) A representative compound of Formula IV, RvE1 magnesium dilysinate, was tested for efficacy in several mouse models of cancer, including the Panc2-H7 model of pancreatic cancer, the Lewis lung carcinoma (LLC) model, the MC38 model of colorectal cancer, and the B16F10 model of melanoma. These models are well established, highly tumorigenic syngeneic models in which murine cancer cell lines are injected subcutaneously (SC) into the dorsum of C57BL/6J mice. If left untreated, these tumors grow rapidly and lead to death or euthanasia, per protocol. As detailed below in Examples 1-9 and the accompanying figures, bis RvE1 Mg-di-lysinate (Compound 1) was unexpectedly effective as an anti-cancer agent in each of these model systems when administered in a less than daily (LTD) dosing regimen. […] Without being bound by any theory, the surprising efficacy of LTD dosing of resolvins in the cancer model systems described here may be the result of durable effects on the tumor microenvironment including changes in immune cell phenotype, vascularization, stromal phenotype, and antigen presentation, as well as durable effects on the T-cell compartment such as T-cell priming and increased tumor-infiltrating lymphocytes.\nBased on the previous findings in the MC38 colorectal cancer model with less than daily (LTD) dosing, a study in the Panc2-H7 model was conducted to assess the efficacy of LTD dosing of bis RvE1 Mg-di-lysinate in a different tumor model. A total of forty (40) C57BL/6J male mice were injected subcutaneously with 1×10e6 living Panc2-H7 cells. Once tumors reached 160-320 mm^3 in size, the mice were randomized (n=8 per group) to treatment with vehicle or SC injection with bis RvE1 Mg-di-lysinate at 30 ug/kg and 300 ug/kg (QD, Q7D)."}, "[2]": {"system": "Panc2-H7 model", "experiment": "Panc2-H7 model with or without CD8 neutralizing antibody", "experimental": "Based on the findings with bis RvE1 Mg-di-lysinate administered in combination with anti-PD1 in two different tumor models (i.e., Panc2-H7 and LLC), daily (QD) and weekly (Q7D) dosing of bis RvE1 Mg-di-lysinate was investigated in the Panc2-H7 model, with and without an antibody that depletes CD8+ T-cells, which play a major role in the antitumor immune response of immune checkpoint inhibitors. A total of thirty (30) C57BL/6J male mice were injected subcutaneously with 1×10e6 living […]. Once tumors reached 220-240 mm^3 in size based on mean tumor volume per cohort, the mice were randomized (n=6 per group) to treatment with vehicle, bis RvE1 Mg-di-lysinate (300 ug/kg, SC, QD or Q7D), with or without CD8 neutralizing antibody (200 ug IP Q3D). All mice were sacrificed on day 20 when the average tumor size of the placebo group exceeded 2,000 mm^3."}, "[3]": {"system": "B16F10 cells", "experiment": "B16F10 model of melanoma, with anti-PD1 and anti-CTLA4", "experimental": "as §1\nBased on the finding of increased efficacy with bis RvE1 Mg-di-lysinate administered in combination with anti-PD1 monotherapy and anti-CTLA4 monotherapy, a study was conducted to investigate the efficacy of less than daily (LTD) bis RvE1 Mg-di-lysinate combined with both anti-PD1 and anti-CTLA4 in the B16F10 model of melanoma. […] See Perez-Ruiz E, et al. Nature. 2019; 569(7756):428-432. Thus, this initial study with ICI dual therapy was designed to investigate whether use of bis RvE1 Mg-di-lysinate with the ICI dual therapy could enhance efficacy, which may offer the opportunity to reduce the dose of the ICI components of the regimen without loss of efficacy. A total of sixty-four (64) C57BL/6J male mice were injected subcutaneously with 1×10e6 living B16F10 cells in the dorsum. When tumors reached a mean tumor volume of approximately 130 mme3, the mice were randomized (n=8 per group) to treatment with vehicle, bis RvE1 Mg-di-lysinate (300 ug/kg, SC, Q6D), anti-PD1 (8 mg/kg, i.p., Q3D) or anti-CTLA-4 (4 mg/kg, Q3D). The double combinations of bis RvE1 Mg-di-lysinate and anti-CTLA-4 or anti-PD1, and anti-PD1 with anti-CTLA-4, as well as the triple combination of bis RvE1 Mg-di-lysinate, anti-CTLA-4 and anti-PD1 were also investigated. All combination arms used the same dosing regimens as the individual monotherapies. The mice were sacrificed on day 12 per protocol when the mean tumor of the vehicle group reached approximately 2,000 mm^3. […] This is clinically relevant for melanoma patients receiving anti-PD1 monotherapy, which is used when the side effects of ICI dual therapy are not tolerated."}, "[4]": {"system": "LLC cells", "experiment": "Metastatic LLC resection model, perioperative (neo-adjuvant) treatment", "conditions": "300 ug/kg, SC, Q6D, first dose 2 hours prior to surgery", "experimental": "To investigate the efficacy of LTD dosing of bis RvE1 Mg-di-lysinate as neo-adjuvant therapy, a study was conducted in the metastatic LLC resection model with treatment initiated in the perioperative window. A total of fifteen (15) C57BL/6J male mice were injected subcutaneously with 1×10e6 living LLC cells. Once tumors reached approximately 1200-1500 mme3 in size, the mice were randomized (n=4-8 per group) to treatment with vehicle (SC, Q6D), bis RvE1 Mg-di-lysinate (300 ug/kg, SC, Q6D), or cisplatin (5 mg/kg, i.p, Q6D), followed by surgical resection of the tumors. The mice in the vehicle and cisplatin groups received an initial dose twenty-four (24) hours prior to surgery, and the mice treated with bis RvE1 Mg-di-lysinate received an initial dose two (2) hours prior to surgery. All mice were sacrificed on day 19 following the death of three mice in the vehicle control group on day 18."}, "[5]": {"conditions": "triple therapy (bis RvE1 Mg-di-lysinate + anti-CTLA-4 + anti-PD1), p<0.001"}},
  "data": [
    {"smiles": "CC[C@@H](O)/C=C/C=C\\C[C@@H](O)/C=C/C=C/C=C\\[C@@H](O)CCCC(=O)O", "note": "[bis RvE1 Mg-di-lysinate]", "values": [
      {"measurement": "tumor volume (Day 20 vs Day 0)", "setting": "[1]; 30 ug/kg, Q7D", "value": "inhibition relative to placebo control"},
      {"measurement": "tumor volume (Day 20 vs Day 0)", "setting": "[1]; 30 ug/kg, QD", "value": "inhibition relative to placebo control"},
      {"measurement": "tumor volume (Day 20 vs Day 0)", "setting": "[1]; 300 ug/kg, Q7D, P<0.05 vs placebo control", "value": "greatest inhibition"},
      {"measurement": "tumor volume (Day 20 vs Day 0)", "setting": "[1]; 300 ug/kg, QD", "value": "inhibition relative to placebo control"},
      {"measurement": "efficacy of weekly (Q7D) relative to daily (QD) dosing", "setting": "[2]; 300 ug/kg SC, mice not receiving the neutralizing antibody", "value": "comparable and possibly superior efficacy relative to daily (QD) dosing"},
      {"measurement": "tumor volume over time", "setting": "[2]; 300 ug/kg, SC, Q7D, without CD8 neutralizing antibody, p<0.01 vs placebo and vs same regimen + CD8 depletion", "value": "significant inhibition compared to placebo control"},
      {"measurement": "inhibition compared to anti-PD1 monotherapy", "setting": "[3]; double combination of bis RvE1 Mg-di-lysinate 300 ug/kg SC Q6D and anti-PD1 8 mg/kg i.p. Q3D, p<0.05", "value": 54, "unit": "%"},
      {"measurement": "efficacy of LTD dosing", "setting": "[3]; monotherapy, 300 ug/kg, SC, Q6D", "value": "effective as monotherapy"},
      {"measurement": "tumor growth inhibition compared to anti-CTLA-4 monotherapy", "setting": "[3]; [5]", "value": 71, "unit": "%"},
      {"measurement": "tumor growth inhibition compared to anti-PD1 monotherapy", "setting": "[3]; [5]", "value": 87, "unit": "%"},
      {"measurement": "inhibition, tumor volume at day 12 divided by tumor volume at day 0", "setting": "[3]; triple therapy: bis RvE1 Mg-di-lysinate 300 ug/kg SC Q6D + anti-CTLA-4 4 mg/kg Q3D + anti-PD1 8 mg/kg i.p. Q3D, p<0.05", "value": 67, "unit": "%"},
      {"measurement": "number of lung metastases", "setting": "[4]; compared to vehicle control and cisplatin, p<0.05", "value": "significantly reduced the number of lung metastases"},
      {"measurement": "number of mice with metastasis in the axillary or inguinal lymph nodes", "setting": "[4]; compared to vehicle or cisplatin, p<0.01", "value": "significantly reduced the number of mice with metastasis in the axillary or inguinal lymph nodes"}
    ]}
  ]
}
